Results: US11000033B2, “Ketone or oxime compound, and herbicide” (NISSAN CHEMICAL CORPORATION, priority 2014, dated 2021)

Columns and labels:
Type in all cases: in vivo
beet [1] = experiment: Test Example 4: effect on crop by soil treatment (symbol f); conditions: application herbicide amount 320 g/ha
Method in brief: (§1)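 The test used sterilized diluvial soil. Seed was set down in spots and overlaid with about 1.5 cm of soil before growth in a greenhouse kept at 25° C. to 30° C.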

Lolium multiflorum Lam. = experiment: Test Example 5: herbicidal effect by foliage application, plastic box (symbol K); conditions: 320 g/ha, 3 weeks after application
Method in brief: (§2)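 Sowing in sterilized diluvial soil, 14 days' greenhouse growth at 25° C. to 30° C., then uniform small-sprayer foliar application of aqueous emulsion dilution; plants scored three weeks afterwards.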

Abutilon theophrasti [2] = experiment: Test Example 4: herbicidal effect by soil treatment (symbol M); conditions: application herbicide amount 320 g/ha
Method in brief: (§3)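 Seeds were sown in sterilized diluvial soil, covered with about 1.5 cm of soil, and the soil surface was sprayed with a water-diluted emulsion of the compound at a predetermined rate. Plants grew in a greenhouse at 25° C. to 30° C.; effects were scored visually 3 weeks after application.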

soybean = experiment: Test Example 4: effect on crop by soil treatment (symbol d); conditions: application herbicide amount 320 g/ha
Method in brief: as §1

Avena fatua = experiment: Test Example 4: herbicidal effect by soil treatment (symbol I); conditions: application herbicide amount 320 g/ha
Method in brief: as §3

Setaria viridis = experiment: Test Example 5: herbicidal effect by foliage application, plastic box (symbol G); conditions: 320 g/ha, 3 weeks after application
Method in brief: as §2

beet [3] = experiment: Test Example 5: effect on crop by foliage application, plastic box (symbol f); conditions: 320 g/ha, 3 weeks after application
Method in brief: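 In a plastic box 7 cm deep filled with sterilized diluvial soil, seeds of crops and weeds such as Digitaria ciliaris, Avena fatua and Amaranthus retroflexus are sown in spots and covered with about 1.5 cm of soil before greenhouse growth at 25–30° C.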

Abutilon theophrasti [4] = experiment: Test Example 5: herbicidal effect by foliage application, plastic box (symbol M); conditions: 320 g/ha, 3 weeks after application
Method in brief: as §2

Leptochloa chinensis = experiment: Test Example 3: herbicidal effect by foliage application, Wagner pot (symbol D); conditions: application herbicide amount 320 g/ha
Method in brief: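 Steps: fill pot with alluvial soil; add water to 0.1–0.5 cm depth; sow weed and rice seed; grow 14 days at 25–30 °C; spray diluted emulsion over the leaves; rate effect after 3 weeks.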

[5] = system: Echinochloa oryzacola Vasing.; experiment: Test Example 2: herbicidal activity, application during weed generation in submerged conditions (symbol A); conditions: Table 23; application herbicide amount 320 g/ha; grade 0-5 by criteria of Test Example 1
Method in brief: (§4)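 Submerged alluvial soil (4 cm) sown with mixed seed; greenhouse 25–30° C. 1–2 leaf: diluted emulsion onto water surface, preset dose. Visual score, 3 wk.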

Scirpus juncoides = experiment: Test Example 2: herbicidal activity, application during weed generation in submerged conditions (symbol B); conditions: Table 23; application herbicide amount 320 g/ha; grade 0-5 by criteria of Test Example 1
Method in brief: as §4

transplanted rice plant = experiment: Test Example 1: effect on crop, application before weed generation in submerged conditions (symbol a); conditions: application herbicide amount 320 g/ha
Method in brief: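 Alluvial soil pots flooded to 4 cm water, sown with Echinochloa oryzacola, Scirpus juncoides and Monochoria vaginalis, then transplanted with 2.5 leaf stage rice seedlings; pre-emergence application. Greenhouse 25° C. to 30° C.; scored 0–5 by herbicidal ratio 3 weeks after application.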

Row | Compound | Effect on crop grade, f: beet (beet [1]) | K: Lolium multiflorum Lam., herbicidal effect (criteria of Test Example 1) (Lolium multiflorum Lam.) | Herbicidal effect grade, M: Abutilon theophrasti (Abutilon theophrasti [2]) | Effect on crop grade, d: soybean (soybean) | Herbicidal effect grade, I: Avena fatua (Avena fatua) | G: Setaria viridis, herbicidal effect (criteria of Test Example 1) (Setaria viridis) | f: beet, effect on crop (criteria of Test Example 1) (beet [3]) | M: Abutilon theophrasti, herbicidal effect (criteria of Test Example 1) (Abutilon theophrasti [4]) | herbicidal effect on D (Leptochloa chinensis), grade 0-5 (Leptochloa chinensis) | K: Lolium multiflorum Lam., herbicidal effect grade (Lolium multiflorum Lam.) | Herbicidal effect grade, A: Echinochloa oryzacola Vasing. [5] | G: Setaria viridis, herbicidal effect grade (Setaria viridis) | f: beet, effect on crop grade (beet [3]) | M: Abutilon theophrasti, herbicidal effect grade (Abutilon theophrasti [4]) | Herbicidal effect grade, B: Scirpus juncoides (Scirpus juncoides) | M (Abutilon theophrasti) herbicidal effect grade (Abutilon theophrasti [2]) | d (soybean) effect on crop grade (soybean) | I (Avena fatua) herbicidal effect grade (Avena fatua) | further results
1 | CC(=O)CC1CC(O)=C(c2c(C)cc(-c3ncccn3)cc2C)C1=O (centres unmarked) [7-017] | 0 (Herbicidal ratio of 5% or lower (almost no effect)) | 3 (Herbicidal ratio of 40% or higher and lower than 70%) | 0 (Herbicidal ratio of 5% or lower (almost no effect)) | 0 (Herbicidal ratio of 5% or lower (almost no effect)) | 0 (Herbicidal ratio of 5% or lower (almost no effect)) | 5 (Herbicidal ratio of 90% or more (almost completely withered)) | 0 (Herbicidal ratio of 5% or lower (almost no effect)) | 0 (Herbicidal ratio of 5% or lower (almost no effect)) | 5 (Herbicidal ratio of 90% or more (almost completely withered)) | – | – | – | – | – | – | – | – | – | –
2 | CC(CC1CC(O)=C(c2c(C)cc(Br)cc2C)C1=O)=NOCC(=O)N(C)C (mixture of isomers) [9-029] | 0 (Herbicidal ratio of 5% or lower (almost no effect)) | – | 0 (Herbicidal ratio of 5% or lower (almost no effect)) | 0 (Herbicidal ratio of 5% or lower (almost no effect)) | 0 (Herbicidal ratio of 5% or lower (almost no effect)) | – | – | – | – | 5 (Herbicidal ratio of 90% or more (almost completely withered)) | 0 (Herbicidal ratio of 5% or lower (almost no effect)) | 3 (Herbicidal ratio of 40% or higher and lower than 70%) | 0 (Herbicidal ratio of 5% or lower (almost no effect)) | 0 (Herbicidal ratio of 5% or lower (almost no effect)) | 0 (Herbicidal ratio of 5% or lower (almost no effect)) | – | – | – | D (Leptochloa chinensis) herbicidal effect grade (Leptochloa chinensis; Table 24): 4 (Herbicidal ratio of 70% or higher and lower than 90%)
3 | CON=C(C)CC1CC(OC(=O)COc2ccc(Cl)cc2)=C(c2c(C)cc(C)cc2C)C1=O (centres unmarked) [1-044] | – | – | – | – | – | – | – | – | 5 (Herbicidal ratio of 90% or more (almost completely withered)) | 5 (Herbicidal ratio of 90% or more (almost completely withered)) | 5 (Herbicidal ratio of 90% or more (almost completely withered)) | 5 (Herbicidal ratio of 90% or more (almost completely withered)) | 2 (Herbicidal ratio of 20% or higher and lower than 40%) | 4 (Herbicidal ratio of 70% or higher and lower than 90%) | 4 (Herbicidal ratio of 70% or higher and lower than 90%) | 5 (Herbicidal ratio of 90% or more (almost completely withered)) | 0 (Herbicidal ratio of 5% or lower (almost no effect)) | 2 (Herbicidal ratio of 20% or higher and lower than 40%) | Effect grade on crop, a: transplanted rice plant (transplanted rice plant): 5 (Herbicidal ratio of 90% or more (almost completely withered))
4 | CC(=O)CC1CC(O)=C(c2c(C)cc(Oc3ccccc3)cc2C)C1=O (centres unmarked) [7-014] | 0 (Herbicidal ratio of 5% or lower (almost no effect)) | 5 (Herbicidal ratio of 90% or more (almost completely withered)) | 0 (Herbicidal ratio of 5% or lower (almost no effect)) | 0 (Herbicidal ratio of 5% or lower (almost no effect)) | 0 (Herbicidal ratio of 5% or lower (almost no effect)) | 0 (Herbicidal ratio of 5% or lower (almost no effect)) | 0 (Herbicidal ratio of 5% or lower (almost no effect)) | 0 (Herbicidal ratio of 5% or lower (almost no effect)) | 5 (Herbicidal ratio of 90% or more (almost completely withered)) | – | – | – | – | – | – | – | – | – | –
5 | CON=C(C)CC1CC(OC(=O)COc2ccc(F)cc2)=C(c2c(C)cc(C)cc2C)C1=O (centres unmarked) [1-073] | – | – | – | – | – | – | – | – | 5 (Herbicidal ratio of 90% or more (almost completely withered)) | – | 5 (Herbicidal ratio of 90% or more (almost completely withered)) | – | – | – | 5 (Herbicidal ratio of 90% or more (almost completely withered)) | 5 (Herbicidal ratio of 90% or more (almost completely withered)) | 0 (Herbicidal ratio of 5% or lower (almost no effect)) | 4 (Herbicidal ratio of 70% or higher and lower than 90%) | K: Lolium multiflorum Lam., herbicidal effect (criteria 0-5) (Lolium multiflorum Lam.): 5 (Herbicidal ratio of 90% or more (almost completely withered)); Effect grade on crop, a: transplanted rice plant (transplanted rice plant): 5 (Herbicidal ratio of 90% or more (almost completely withered)); G: Setaria viridis, herbicidal effect (criteria 0-5) (Setaria viridis): 5 (Herbicidal ratio of 90% or more (almost completely withered)); f: beet, effect on crop (criteria 0-5) (beet [3]): 1 (Herbicidal ratio of 5% or higher and lower than 20%); M: Abutilon theophrasti, herbicidal effect (criteria 0-5) (Abutilon theophrasti [4]): 4 (Herbicidal ratio of 70% or higher and lower than 90%)
6 | CC(=O)CC1CC(O)=C(c2c(C)cc(-c3ccc(OC(F)(F)F)cc3)cc2C)C1=O (centres unmarked) [7-016] | 0 (Herbicidal ratio of 5% or lower (almost no effect)) | 0 (Herbicidal ratio of 5% or lower (almost no effect)) | 0 (Herbicidal ratio of 5% or lower (almost no effect)) | 0 (Herbicidal ratio of 5% or lower (almost no effect)) | 0 (Herbicidal ratio of 5% or lower (almost no effect)) | 1 (Herbicidal ratio of 5% or higher and lower than 20%) | 0 (Herbicidal ratio of 5% or lower (almost no effect)) | 0 (Herbicidal ratio of 5% or lower (almost no effect)) | 5 (Herbicidal ratio of 90% or more (almost completely withered)) | – | – | – | – | – | – | – | – | – | –
7 | CON=C(C)CC1CC(OC(=O)CCC2CCCCC2)=C(c2c(C)cc(C)cc2C)C1=O (centres unmarked) [1-035] | – | – | – | – | – | – | – | – | 5 (Herbicidal ratio of 90% or more (almost completely withered)) | 5 (Herbicidal ratio of 90% or more (almost completely withered)) | 5 (Herbicidal ratio of 90% or more (almost completely withered)) | 5 (Herbicidal ratio of 90% or more (almost completely withered)) | 2 (Herbicidal ratio of 20% or higher and lower than 40%) | 4 (Herbicidal ratio of 70% or higher and lower than 90%) | 4 (Herbicidal ratio of 70% or higher and lower than 90%) | 5 (Herbicidal ratio of 90% or more (almost completely withered)) | 0 (Herbicidal ratio of 5% or lower (almost no effect)) | 4 (Herbicidal ratio of 70% or higher and lower than 90%) | f (beet) effect on crop grade (beet [1]): 3 (Herbicidal ratio of 40% or higher and lower than 70%)
